Data on one compound can be found in patent US9315459B2, “Crystalline forms of 4-[2-(4-methylphenylsulfanyl)-phenyl] piperidine” (priority 2006, dated 2016).

Test [1] has as its system extracellular levels of acetylcholine. The test is described as follows: Microdialysis, extracellular acetylcholine in prefrontal cortex of freely-moving rats (Example 2F). It is filed as in vivo, rat. The conditions noted are these: Wistar rats, s.c., FIG. 24. The method, then:
The experiment was designed to evaluate the effects of compounds of the present invention on extracellular levels of acetylcholine in the prefrontal cortex of freely-moving rats.
Male Wistar rats (280-350 g; Harlan, Zeist, The Netherlands) were used for the experiments. Rats were individually housed in plastic cages (30×30×40 cm) and had ad libitum access to food and water.
Rats were anesthetized using isoflurane (2%, 400 mL/min N2O, 400 ml/min O2). Lidocain (10% m/v) was used for local anesthesia. […]
Experiments were carried out 24-48 hours after surgery. […] Samples were collected by an automated fraction collector (CMA 142), and stored at −80° C. until analyzed. […]
Concentrations of acetylcholine were determined by HPLC with tandem mass spectrometry (MS/MS) detection. […]
The LC/MS analyses were performed using an API 4000 MS/MS system consisting of an API 4000 MS/MS detector and a Turbo Ion Spray interface (both from Applied Biosystems, the Netherlands). […] Data were calibrated and quantitated using the Analyst™ data system (Applied Biosystem, version 1.2).
Two consecutive microdialysis samples with less then 50% variation were taken as baseline levels and set at 100%. Changes in acetylcholine concentration were expressed as percent of baseline within the same subject.

The target in test [2] is T1, human alpha1A-7 receptors (Homo sapiens, UniProt P35348).
T1 construct: expressed in transfected cells; host or cells: CHO cells
T1 sequence (P35348 1-466): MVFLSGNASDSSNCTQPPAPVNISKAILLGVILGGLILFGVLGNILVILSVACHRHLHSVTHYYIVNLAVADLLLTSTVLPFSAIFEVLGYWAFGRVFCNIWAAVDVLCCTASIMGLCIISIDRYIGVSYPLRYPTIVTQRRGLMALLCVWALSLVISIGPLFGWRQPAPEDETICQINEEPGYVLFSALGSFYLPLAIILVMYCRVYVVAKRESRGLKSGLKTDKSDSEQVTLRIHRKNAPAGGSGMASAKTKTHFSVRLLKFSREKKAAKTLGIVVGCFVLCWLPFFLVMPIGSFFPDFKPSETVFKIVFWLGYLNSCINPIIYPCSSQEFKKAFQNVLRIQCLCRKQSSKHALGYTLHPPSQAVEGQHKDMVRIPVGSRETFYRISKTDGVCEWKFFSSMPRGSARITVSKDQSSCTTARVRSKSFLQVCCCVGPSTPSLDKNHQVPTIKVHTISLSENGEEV
The test is described as follows: Functional assay, adrenaline evoked release of Ca2+ in CHO cells expressing human alpha1A-7 receptors. The test is classed as cell-based. The method, then:
These experiments were carried out essentially as described below. All cells were cultured in DMEM medium supplemented with 10% BCS, 4 mM L-glutamine (or 2 mM in the case of COS-7), and 100 units/ml penicillin plus 100 μg/ml streptomycin, at 37° C., in 5% CO2. Twenty-four hours prior to assays, CHO cells expressing the human alpha1A-7 receptors were seeded into 384-well black wall microtiter plates coated with poly-D-lysine. […] After excess dye was discarded, cells were washed in assay buffer and layered with a final volume equal to 45 μl/well (or 30 ul/well for antagonist assay). […] Basal fluorescence was monitored in a fluorometric imaging plate reader or FLIPR™ from Molecular Devices (Sunnyvale, Calif.) with an excitation wavelength of 488 nm and an emission range of 500 to 560 nm. Laser excitation energy was adjusted so that basal fluorescence readings were approximately 8,000 relative fluorescent units (RFU). Cells were then stimulated at room temperature with agonists diluted in assay buffer (15 μl), and RFU were measured at 1.5 second intervals over a period of 2.5 min. Maximum change in fluorescence was calculated for each well. Concentration-response curves derived from the maximum change in fluorescence were analyzed by nonlinear regression (Hill equation).

The target in test [3] is T2, human 5-HT2A receptors (Homo sapiens, UniProt P28223).
T2 construct: expressed in transfected cells; host or cells: CHO cells (functional assay)
The test is described as follows: Functional assay, 5-HT evoked release of Ca2+ in CHO cells expressing human 5-HT2A receptors (FLIPR). The test is classed as cell-based. The conditions noted are these: mammalian cells expressing human 5-HT2A.
Protocol: The experiment was carried out as follows. 2 or 3 days before the experiment CHO cells expressing 250 fmol/mg human 5-HT2A receptors are plated at a density sufficient to yield a mono-confluent layer on the day of the experiment. […] Lacer intensity was set to a suitable level to obtain basal values of approximately 8000-10000 fluorescence units. The variation in basal fluorescence should be less than 10%. […] Ki values are calculated using Cheng-Prusoff equation.

T2 sequence (P28223 whole entry): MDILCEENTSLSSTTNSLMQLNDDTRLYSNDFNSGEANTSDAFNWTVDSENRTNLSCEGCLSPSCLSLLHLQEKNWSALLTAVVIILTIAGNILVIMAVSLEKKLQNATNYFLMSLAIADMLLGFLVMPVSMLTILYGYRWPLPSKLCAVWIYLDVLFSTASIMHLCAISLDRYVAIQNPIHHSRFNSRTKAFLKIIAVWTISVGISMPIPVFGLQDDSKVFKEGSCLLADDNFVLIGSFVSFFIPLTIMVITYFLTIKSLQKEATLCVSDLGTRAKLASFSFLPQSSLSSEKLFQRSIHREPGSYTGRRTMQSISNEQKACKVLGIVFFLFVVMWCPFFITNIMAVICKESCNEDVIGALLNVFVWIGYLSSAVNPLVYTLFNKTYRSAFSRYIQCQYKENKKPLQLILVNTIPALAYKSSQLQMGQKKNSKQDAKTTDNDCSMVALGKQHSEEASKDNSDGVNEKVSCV

Take `Cc1ccc(Sc2ccccc2C2CCNCC2)cc1` [compound I, 4-[2-(4-methylphenylsulfanyl)-phenyl]piperidine]: the “Extracellular level of acetylcholine” value in test [1] is reported as “increase”. Besides, the “Functional profile, adrenaline evoked release of Ca2+” value in test [2] is listed as “antagonists”. Moreover, the “Mode of action at human 5-HT2A receptors” value in test [3] is “competitive antagonistic properties”.
